Here are results for 30 compounds from PubChem BioAssay (NCI).

What all share (assay): NCI anticancer screen, dose series, 48 h
The test system of assay [1] is SNB-75 CNS.
For assay [2], the system named is A549 NSCLC.
Assay [3] relates to SN12C renal.
Assay [4] deals with IGROV1 ovarian.
Assay [5] relates to SK-MEL-5 melanoma.
For assay [6], the system named is MDA-MB-435.
Assay [7] relates to K-562 leukemia.
Assay [8] concerns CCRF-CEM leukemia.
Assay [9] relates to SR leukemia.
In assay [10] the test system is MALME-3M melanoma.

Structures are written as SMILES.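 Values below derive from 48-hour exposures of cells grown in 96-well plates, with endpoints linearly interpolated between the two concentrations bracketing the appropriate inhibition level. GI50 marks 50% less growth. Definition used: TGI = concentration required for complete inhibition of growth.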

As to `Cc1cc(OP2(=O)NCc3ncccc3O2)ccc1Cl` (centres undefined), the TGI in [1], in assay [2], in assay [3], in assay [4], in assay [5] and in assay [6] was over 100 µM throughout. Moreover, the TGI in assay [7], in assay [8] and in assay [9] was over 100 µM in each case.
As for `CSc1nc2c(c(N(C)C)n1)C(O)n1c(nc3ccccc31)S2` (centres undefined), the TGI was 74.2 µM in assay [1]; over 100 µM in [10]; over 100 µM in assay [2]; over 100 µM in assay [3]; over 100 µM in assay [4]; over 100 µM in assay [5]. Moreover, the TGI in [6], in [7] and in [8] was over 100 µM throughout.
For `CCOC(=O)CNC(=O)NC12CC3CC(CC(C3)C1)C2`, the TGI in [1] was 408 µM; in assay [10], 420 µM; in assay [2], over 550 µM; in assay [3], over 550 µM; in [4], over 550 µM; in assay [5] it was 330 µM. The TGI in assay [7] and in assay [8] was over 550 µM in each case.
`CN(C)CCNC(=O)Cc1ccccc1Nc1c(Cl)cccc1Cl`: the TGI came out at 27.4 µM in [1]; 36 µM in [2]; 31.4 µM in assay [3]; 38.4 µM in [4]; 30.2 µM in assay [5]; 37.5 µM in assay [7]. The figures for the TGI in assay [8] and in assay [9] were 34 µM and 37.7 µM, respectively.
`CCCN(CCC)c1c([N+](=O)[O-])cc(C(=O)N(CC)CC)cc1[N+](=O)[O-]`: the TGI was 82.7 µM in [1]; 40.5 µM in assay [10]; 38.1 µM in [2]; over 100 µM in assay [3]; over 100 µM in assay [4]; 26.8 µM in [5]. Besides, the values for the TGI in assay [7], in [8] and in assay [9] were over 100 µM, 60.9 µM and 55.2 µM, respectively.
In the case of `COc1cc(C2c3cc4c(cc3[C@@H](Nc3ccccc3)C3COC(=O)[C@H]23)OCO4)cc(OC)c1O` (some centres undefined), the TGI came out at 7.97 µM in [1]; 8.65 µM in assay [10]; 1.82 µM in [2]; 6.03 µM in assay [3]; 17.5 µM in [4]; 2.66 µM in [5]. In addition, the TGI in [7] was determined as 9.32 µM; in assay [8] it was 0.476 µM.
Take `Cc1c2c(c(C)n1-c1ccccc1)C(=O)N(CCN1CCN(c3cccc(C(F)(F)F)c3)CC1)C2=O`: the TGI is over 100 µM in assay [1]; over 100 µM in assay [10]; over 100 µM in [2]; over 100 µM in assay [3]; over 100 µM in assay [4]; 20.8 µM in assay [5]. Moreover, the TGI in [6] and in [7] was over 100 µM each time.
In the case of `Cc1ccnc(NC(=S)Nc2ccc([N+](=O)[O-])cc2)c1`, the TGI in assay [1], in assay [4], in [5], in assay [6], in [7] and in assay [8] was over 100 µM each time. Further, the TGI in [9] is over 100 µM.
On to `CC(C)(C)c1ccc2c(c1)C#Cc1cc3c(cc1OCCCO2)C#Cc1cc(C(C)(C)C)ccc1OCCCO3`, for which the TGI in assay [10], in [2], in assay [3], in [4], in assay [5] and in assay [6] was over 100 µM in each case. The TGI in [7] and in assay [8] was over 100 µM each time.
Take `O=C1c2cccc3cccc(c23)C(=O)N1CCCNCCCCNCCCNCCCN1C(=O)c2cccc3cccc(c23)C1=O`: the TGI in assay [1] amounted to 1.46 µM; in assay [10], 1.25 µM; in [2], 1.39 µM; in assay [3] it was 1.8 µM; in [4], 3.41 µM; in [5] it was 8.35 µM. For the same compound, the TGI in assay [6] is 2 µM; in assay [7], 3.79 µM; in assay [8] it was over 100 µM.
With `COc1cc2c(cc1OCCCCCN1CCN(c3ncnc4ccccc34)CC1)N=CC1CCCN1C2=O` (centres undefined), the GI50 in assay [1] is 0.0168 µM; in assay [10] it was 0.0303 µM; in assay [2], 0.0307 µM; in [3], 0.03 µM; in assay [5], 0.018 µM; in assay [7] it was under 0.0174 µM. Besides, the GI50 in assay [8] is 0.0133 µM. For the same compound, the TGI came to 0.0823 µM in assay [1]; 0.0618 µM in assay [10]; 25.8 µM in assay [2]; 4.65 µM in [3]; 0.0338 µM in assay [5]; 0.0727 µM in [8].
For the compound `CC1OC(O[C@H]2C3C=CO[C@@H](OC4OC(CO)C(O)C(O)C4O)C3[C@@]3(COC(=O)/C=C/c4ccccc4)O[C@@H]23)C(O)C(O)C1O` (some centres undefined), the TGI in [1], in assay [10], in assay [2], in [3], in assay [4] and in assay [5] was over 100 µM throughout. Moreover, the TGI in [6], in assay [7] and in assay [8] was over 100 µM in each case.
As to `O=C(CN1C(=O)CC(c2ccccc2)(c2ccccc2)C1=O)N1CCN(CCO)CC1`, the TGI in assay [1], in assay [2], in assay [3], in assay [4], in assay [5] and in assay [6] was over 100 µM in each case. Moreover, the TGI in assay [7] and in assay [8] was over 100 µM each time.
As for `CN1Cc2c(nc(-c3ccccc3)c[n+]2[O-])N(C)C1`, the TGI in assay [1], in assay [10], in [2], in assay [3], in assay [4] and in [5] was over 100 µM in each case. The TGI in [7] and in assay [8] was over 100 µM throughout.
Take `Cc1cc(C)nc(NC(=S)Nc2ccc([N+](=O)[O-])cc2)c1`: the TGI in [1], in assay [4], in assay [5], in assay [6], in assay [7] and in assay [8] was over 100 µM in each case. The compound further came in with a TGI in [9] of over 100 µM.
Regarding `O=C(NCCCl)O/N=C/c1cccnc1`, the results for the GI50 in assay [1] and in assay [10] were over 100 µM and 89.5 µM, respectively. The TGI in assay [1], in assay [10], in [2], in [3], in assay [4] and in assay [5] was over 100 µM in each case. For the same compound, the TGI in assay [7] and in assay [8] was over 100 µM in each case.
Take `C=C(C)[C@H]1C2=CC(C(=O)OC)=C(C[C@H](C(=C)C)[C@@H](O)[C@@H](O)C3=C[C@H]1OC3=O)O2`: the TGI in [1], in assay [10], in assay [2], in assay [3], in assay [4] and in assay [5] was over 100 µM in each case. In addition, the TGI in assay [6], in assay [7] and in [8] was over 100 µM in each case.
In the case of `N#Cc1sc2c(c1OC(=O)c1ccc(C(F)(F)F)cc1)c(=O)n(-c1ccccc1)c(=S)n2-c1ccccc1`, the TGI in assay [1] is 85.7 µM; in [10], 84.4 µM; in [2], over 100 µM; in [3] it was 88.1 µM; in assay [4], 56.2 µM; in assay [5], 62.2 µM. Further, the TGI in assay [6] is 94.3 µM; in assay [7], over 100 µM; in [8] it was 36.7 µM.
Turning to `N#CC(c1ccccc1)N(CCOCCOCCN(C(=O)c1ccccc1)C(C#N)c1ccccc1)C(=O)c1ccccc1` (centres undefined), the TGI in assay [1], in [10], in [2], in assay [3], in assay [4] and in assay [5] was over 100 µM in each case. Further, the TGI in [6], in assay [7] and in [8] was over 100 µM throughout.
Consider `Nc1c(S(=O)(=O)c2ccc(Cl)cc2)c2nc3ccccc3nc2n2ccnc12`, for which the TGI in [1] is 93.2 µM; in assay [10], over 100 µM; in assay [2], over 100 µM; in assay [3], over 100 µM; in assay [4] it was over 100 µM; in assay [5], over 100 µM. Moreover, the TGI in assay [7] and in [8] was over 100 µM in each case.
Regarding `Cc1cc(N(C)C)c2ccccc2[n+]1CCCCCCCCCC[n+]1c(C)cc(N(C)C)c2ccccc21`, the TGI in assay [1] is 8.91 µM; in assay [10], over 41.6 µM; in assay [2] it was 18 µM; in assay [3] it was 4.72 µM; in assay [4], over 20.6 µM; in [5], 1.07 µM. Further, the TGI in assay [6] is 3.26 µM; in assay [7], over 35.3 µM; in [8] it was 13.5 µM.
As for `Nc1ncnc2c1ccn2C/C=C/CO`, the TGI in [1], in assay [10], in [2], in assay [3], in assay [4] and in assay [5] was over 100 µM in each case. Further, the TGI in assay [6], in [7] and in assay [8] was over 100 µM each time.
Turning to `COc1ccc(NC(=O)CSc2nnc(-c3ccc(NC(C)=O)cc3)o2)cc1`, the TGI in [1] was over 100 µM; in [10], 40.8 µM; in assay [2] it was 45.3 µM; in assay [3], 41.9 µM; in [4], 36.9 µM; in assay [5], 27.7 µM. The TGI in assay [7] and in assay [8] was over 100 µM each time.
On to `O=C(NN1C(=O)CS(=O)(=O)C1c1ccc(C(F)(F)F)cc1)c1ccncc1` (centres undefined), for which the TGI in [1], in [10], in assay [2], in [3], in assay [5] and in [8] was over 100 µM throughout. The compound also returned a TGI in assay [9] of over 100 µM.
Consider `O=C1NC(O)CCN1C1OC(CO)C(O)C1O` (centres undefined), for which the TGI in [1] was over 250 µM; in [10] it was over 250 µM; in assay [2] it was over 250 µM; in [3], over 250 µM; in [4] it was over 250 µM; in assay [5], over 92 µM. Besides, the TGI in [7] and in assay [8] was over 250 µM each time.
For the compound `O=C(OCC(Cl)(Cl)Cl)N1CC[C@H](C2CCCCC2)C1`, the TGI in [1] was 35.9 µM; in assay [2] it was 36.1 µM; in [3], over 100 µM; in [4], 32.7 µM; in [5] it was 30 µM; in assay [7] it was 53 µM. The TGI is 36.1 µM in assay [8] and 40.6 µM in assay [9].
On to `Cc1ccsc1/C=N/Nc1cnccn1`, for which the TGI in [1], in assay [10], in assay [2], in assay [3], in assay [4] and in assay [5] was over 100 µM in each case. Also, the TGI in assay [6], in assay [7] and in assay [8] was over 100 µM each time.
Take `CC(C(=O)COCc1ccccc1)P1(=O)OC(C)(C)CN1C(C)(C)C` (centres undefined): the TGI in assay [1], in assay [2], in [3], in [5], in [6] and in [8] was over 100 µM throughout.
`CCCCOCCOC1=C(Cl)C(=O)c2c(O)ccc(O)c2C1=O`: the TGI in [1] worked out at 2.01 µM; in [10], 0.628 µM; in assay [2] it was 4.64 µM; in [3] it was 1.59 µM; in [4] it was 2.47 µM; in [5] it was 1.98 µM. In addition, the TGI in [6] amounted to 1.07 µM; in assay [8] it was 0.242 µM.
For `COC(=O)c1ccccc1CC1Cc2cccc(C)c2C1=O` (centres undefined), the TGI in assay [1] is 86.8 µM; in assay [10], 48.3 µM; in [2] it was over 100 µM; in assay [3], over 100 µM; in [4], over 100 µM; in assay [5], 37.5 µM. In addition, the TGI was 50.8 µM in [6], 68.4 µM in assay [7] and over 100 µM in assay [8].
